One sequence from US20160083424A1, “COMPOSITIONS AND METHODS FOR TARGETING ANTIGEN-PRESENTING CELLS” (OSLO UNIVERSITETSSYKEHUS HF, priority 2013, published 2016) can be followed below.

For test [1], the system named is PBMCs. Kind of test: Targeted vs spontaneous uptake of pp65 peptides at 37° C., dextramer staining. The format is cell-based, human. The following applies: PBMCs incubated at 37° C., 12 days, relative to untargeted peptide, particularly at lower peptide concentrations. As for the experimental part: (§1) PBMC from HLA-A2/CMV+ donors were thawed, washed and then incubated with the peptides (5 μg/ml) for 60 min at 4° C. Subsequently, the cells were washed twice and then plated at 2×10^5 cells per well in 96-well tissue culture plate. Cells were cultured for 5 days and subsequently they were pulsed with [^3H] thymidine and harvested 16 h later. In some experiments, the cells were cultured for 12 days and then stained with dextramers specific for pp65 NLVPMVATV (SEQ ID NO:19) epitope. Monocyte-depleted PBMCs were also used. To analyze primary immune responses against pp65 protein, PBMCs from HLA-A2+/CMV-negative donors were used. Autologous DCs were incubated with either NW-pp65 or GA-pp65 peptide (5 μg/ml) at 4° C. for 1 h, followed by three washes to remove unbound peptides. Subsequently, the cells were incubated with CD45RO-depleted PBMC (responder cells) and co-cultured for 10 days at ratio 1/10 (DC to responder cells) in X-vivo 15 medium supplemented with 10 ng/ml human IL-7 for 10 days. After 2 rounds of stimulation (8 days each) with autologous DC loaded with peptides, the cells were stained with dextramers specific for pp65 NLVPMVATV (SEQ ID NO:19) epitope. To test spontaneous uptake of peptides by DCs, PBMCs from HLA-A2+/CMV positive donors were incubated at 37° C. with various concentrations of untargeted or targeted pp65 peptide for 90 min. […]

The subject of test [2] is CD8 T cells specific for the NLVPMVATV epitope. Kind of test: Dextramer staining of CD8 T cells after stimulation with peptide-exposed DCs. The format is cell-based, human. The settings on record: DC-stimulated CD8 T cells, CMV positive donors, equal molar concentrations, n=3. On the procedure:
(§2) Peptides at a concentration of 5 μg/ml were incubated with semi mDCs from HLA-A2/CMV-positive donors for 60 min at 4° C. Subsequently, they were washed to remove unbound peptides. Autologous stimulation was done in 96-well tissue culture plates in X-vivo 15 medium. Briefly, DCs were mixed with 10^5 autologous CD4 or CD8 T cells at a DC/lymphocytes ratios of 1/5 and 1/10 in a final volume of 250 μl. Cells were incubated for 5 days and then they were pulsed with [^3H] thymidine and harvested 16 h later. [^3H] thymidine incorporation was measured in a β-scintillation counter. In some experiments, the cells were cultured for 8 days and then stained with dextramers specific for pp65 NLVPMVATV (SEQ ID NO:19) epitope.
Dextramers with CMV (NLVPMVATV) (SEQ ID NO:19) and HIV (ILKEPVHGV) (SEQ ID NO:22) HLA-A2 specific antigens were obtained from Immudex (Copenhagen, Denmark). Antibodies against human CD8, CD19 and CD56 were obtained from eBioscience (San Diego, Calif., USA). […] Cells were washed and resuspended in SB containing 1% paraformaldehyd and analyzed on a BD SLR II flow cytometer. The data were analyzed using FCS Express (De Novo Software, Los Angeles, Calif., USA).

The test system of test [3] is pp65-specific naïve T cells. Kind of test: Induction of CMV-pp65-specific T cells from naive donor repertoire, dextramer staining. The format is cell-based, human. The settings on record: CD45RO-depleted PBMCs, HLA-A2+/CMV negative donors, IL-7, representative example. As for the experimental part: as §1, with “days.” for “days. After 2 rounds of stimulation (8 days each) with autologous DC loaded with peptides, the cells were stained with dextramers specific for pp65 NLVPMVATV (SEQ ID NO:19) epitope. To test spontaneous uptake of peptides by DCs, PBMCs from HLA-A2+/CMV positive donors were incubated at 37° C. with various concentrations of untargeted or targeted pp65 peptide for 90 min.”
Dextramers with CMV (NLVPMVATV) (SEQ ID NO:19) and HIV (ILKEPVHGV) (SEQ ID NO:22) HLA-A2 specific antigens were obtained from Immudex (Copenhagen, Denmark). […] Cells were washed and resuspended in SB containing 1% paraformaldehyd and analyzed on a BD SLR II flow cytometer. The data were analyzed using FCS Express (De Novo Software, Los Angeles, Calif., USA). […]

Test [4] deals with autologous CD4 or CD8 T cells. Kind of test: Autologous stimulation of T lymphocytes by DCs exposed to targeted pp65 peptides, [3H] thymidine incorporation. The following applies: semi mDCs loaded at 4° C., HLA-A2+/CMV positive donors, 5 days. The format is cell-based, human. As for the experimental part:
as §2
The capacity of the NW-pp65 fusion peptide (60-mer) to activate T cells from HLA-A2+/CMV positive donors was evaluated. It should be noted that the 48-mer pp65 peptide contains both MHC class I (e.g. NLVPMVATV) (SEQ ID NO:19) and class II (e.g. AGILARNLVPMVATV (SEQ ID NO:23), FFWDANDIYRI (SEQ ID NO:24)) epitopes, allowing the detection of CD4 and CD8 T-cell responses (24-26). […] All cultures were incubated at 37° C. for 5 days and T-cell activation was determined by measuring their proliferation potential (FIG. 6A). […]
On the technique in general: Dividing cells build labelled thymidine or BrdU into new DNA.

For test [5], the system named is iDCs. Kind of test: Peptide binding and internalization by fluorescence microscopy. The format is cell-based, human. The settings on record: 37° C. On the procedure: Then the medium was replaced with fresh medium and the cells were incubated with the peptides (5 μg/ml) for 60 min at 37° C. followed by 5 min incubation with Hoechst 33342 (Invitrogen Dynal AS, Oslo, Norway). The cells were washed twice with PBS and fixed with 4% paraformaldehyde for 15 min at 4° C. After washing, slides were covered with Dako cytomation fluorescent mounting medium and then images were taken with either epifluorescence (Leica DM RHC, Leica Microscopy As, Oslo, Norway) or confocal microscopy (Zeiss LSM 510, […]).

For test [6], the system named is iDCs. Kind of test: Peptide binding by flow cytometry. Further details: species or system human. The following applies: iDCs. As for the experimental part:
The cells were seeded onto 24-well plate (3×10^5/well/0.5 ml) in X-vivo 15 medium and incubated overnight at 37° C. Subsequently, they were incubated with 6IAF-conjugated peptides (5 μg/ml) for 30 min at 37° C., gently scraped, washed 3 times and then analyzed by flow cytometry. Binding was also performed at 4° C.
Background: A flow cytometer gives signals particle by particle.

For the sequence “NWYLPWLGTNDWGCFTWPPWQAGILARNLVPMVATVQGQNLKYQEFFWDANDIYRIFAEL [NW-60-mer, 48-mer CMV pp65 peptide fused to NW peptide]”, the “expansion of CD8 T cells after uptake at 37° C.” value in test [1] is given as “significant expansion of CD8 T cells”. In addition, the “dextramer-positive CD8 T cells specific for NLVPMVATV” value in test [2] is listed as 10.50%. In addition, in test [3], the “pp65-specific naïve T cells (dextramer staining)” value worked out at 0.22%. The “T-cell activation (proliferation, [3H]-thymidine)” value in test [4] is “activated both CD8 and CD4 T cells”. Further, the “internalization by iDCs (confocal microscopy)” value in test [5] was “internalized”. The “binding of 6IAF-conjugated pp65 fusion peptides to DCs” value in test [6] is “bound to iDCs”.
